# Data as given in patent publication US9156796B2, “Benzoimidazole-carboxylic acid amide derivatives as APJ receptor modulators” (SANOFI, priority 2013, dated 2015).
# Target: T1, human apelin receptor (Homo sapiens, UniProt P35414)
# T1 construct: expressed in transfected cells
# T1 sequence (P35414 1-380): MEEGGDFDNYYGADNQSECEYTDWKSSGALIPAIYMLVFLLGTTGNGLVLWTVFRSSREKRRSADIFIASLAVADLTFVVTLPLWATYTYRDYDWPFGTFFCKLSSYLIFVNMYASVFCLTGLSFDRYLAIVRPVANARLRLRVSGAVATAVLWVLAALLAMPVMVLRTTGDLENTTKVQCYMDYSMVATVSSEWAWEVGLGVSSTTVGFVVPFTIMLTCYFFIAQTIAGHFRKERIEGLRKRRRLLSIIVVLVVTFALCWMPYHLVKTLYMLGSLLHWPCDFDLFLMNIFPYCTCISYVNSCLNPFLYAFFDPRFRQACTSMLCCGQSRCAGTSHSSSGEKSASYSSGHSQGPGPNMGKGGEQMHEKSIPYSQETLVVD
# Test: Determination of agonism on the human apelin receptor by a calcium fluorescence assay (FLIPR)
# Type: cell-based
# Details: HEK293 cells stably transfected with human apelin receptor and Giaq protein, Fluo-4 calcium fluorescence, read-out: EC50 (APJ agonism)
# How it was run: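 Agonist EC50s come from peak intracellular calcium transients recorded by FLIPR Tetra, scaled to the 1 μM apelin-13 maximum per plate. Test system: HEK293 stably transfected with human apelin receptor plus Giaq, Fluo-4-loaded (4 μM, 1 h, 37 °C, pH 7.4 buffer with probenecid); ≥7 concentrations, triplicates.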
row,Compound,EC50
1,"CC(C)C[C@@H](CCC(=O)O)NC(=O)c1ccc2c(c1)nc(Cc1cccs1)n2C1CCCCC1C(F)(F)F (stereo partly drawn) [Example 69, (R)-6-Methyl-4-{[2-thiophen-2-ylmethyl-1-(2-trifluoromethyl-cyclohexyl)-1H-benzoimidazole-5-carbonyl]-amino}-heptanoic acid]",339 nM
2,"CC(C)C[C@H](NC(=O)c1ccc2c(c1)nc(Cc1cccs1)n2CC(C)C)C(=O)O [Example 127, (S)-2-[(1-Isobutyl-2-thiophen-2-ylmethyl-1H-benzoimidazole-5-carbonyl)-amino]-4-methyl-pentanoic acid]",15000 nM
3,"CCC(CC)n1c(Cc2ccco2)nc2cc(C(=O)N[C@@H](CC3CCCCC3)C(=O)O)ccc21 [Example 8, (S)-3-Cyclohexyl-2-{[1-(1-ethyl-propyl)-2-furan-2-ylmethyl-1H-benzoimidazole-5-carbonyl]-amino}-propionic acid]",107 nM
